Reference: US6765105B2, “Compound and pharmaceutical composition of antiplasmid effect and the preparation thereof” (priority 2000, dated 2004)
“Also recorded” adds a separate entry of the source. Read-outs that look alike come from different tables or passages of the source. Marks after values point to notes of the source that are not given here.

Legend:
[1] = system: RN 4220 S. aureus, plasmid pIP 855; assay type: cell-based; settings: without substance 1.8
[2] = system: RN 4220 S. aureus, plasmid pIP 856; assay type: cell-based; settings: without substance 2.3
[3] = system: F′lac plasmid of E. coli K12; assay type: cell-based
Experimental: (§1) We made a dilution of 10^−4 from a culture of 16 hours of the bacteria strain K12 LE140 of E. coli and we inoculated 0.05 ml (1 to 5×10^3 cells) of it into 5 ml of broth culture medium MTE. The cultures with plasmid eliminating compounds added in different concentrations were incubated at 37° C. during 24 hours. We made dilutions from the contents of tubes, in which growth of bacteria were detected, then 0.1 ml of these dilutions were streaked onto EMB agar. The plates were incubated at 37° C. during 24 hours, then we counted the settlements of bacteria of types lac^+ and lac^−, which provides basis to calculate the percent of inhibition.

[4] = system: RN 4220 S. aureus, plasmid pCRG 1600; assay type: cell-based; settings: without substance 2.1
[5] = system: RN 4220 S. aureus, plasmid pBI 109 PGL; assay type: cell-based; settings: without substance 68.7
[6] = system: E. coli K12 F′lac (PBR322) plasmid; assay type: cell-based
Experimental: (§2) We made a dilution of 10^−4 from a preliminary culture of 16 hours of E. coli strains containing R-factor, and dosed 0.05 ml therefrom into a broth culture medium MTE of 5 ml. We completed the cultures with the examined compounds in different concentrations and kept them at the temperature 37° C. during 24 to 48 hours without aeration. We made different dilutions from the cultures and streaked 0.1 ml of them onto EP agar plates. Having incubated them during the night we made a replication from the plates containing the cultures onto plates containing the corresponding antibiotics.
The plates containing antibiotics were incubated at 37° C. during 24 hours then the settlements of bacteria on them were compared to those on the master plates and the requirement of nutrition of the bacteria was examined.

[7] = system: E. coli; assay: Bacteriostatic effect (MIC), serial dilution in liquid culture medium; assay type: cell-based
[8] = system: E. coli K12 J5-3 (R27) donor to E. coliχ1037 recipient; settings: donor E. coli K12 J5-3 (R27)
Experimental: (§3) We made tenfold dilutions of fresh donor culture of E. coli C600 R144 drd-3 and of fresh recipient culture resistant to i^r and in some cases to nalid-x acid of E. coli K12 W1 at optical density of 0.4 ([…]), then we mixed together 1.0 ml of donor culture and 1.0 ml of recipient culture and kept the samples at the temperature 37° C. 0 to 24 hours in presence of the applied compounds.
(§4) As control the mixture of donor and recipient cultures of the same proportion was incubated.
(§5) We performed experiments of two types to clarify the manner of action. The donor cells were previously treated during 5 minutes with the compound to be examined being in corresponding concentration, and the recipient cells were added thereafter in the experiments of one type The compounds to be examined were added 5 minutes after mixing together the donor and recipient cultures in the experiments of the other type. The target of our examinations was the inhibition of the conjugated transfer at the formed pairs. We made tenfold dilutions of the samples with physiological saline solution, the formed pairs of cells were divided by shaking during 1 minute then we made following dilutions where no more resistance transfer passed (see. Beverley and fellow-workers, 1981).
(§6) We streaked quantities of 0.1 ml form the dilutions onto MTE agar plates containing 50 μg/ml of kanamycine and onto plates containing 500 μg/ml of sodium azide to determine the number of recombinants. The number of donor bacteria was established only on the culture medium containing kanamycine, the number of recipient ones was established only on the culture medium containing sodium azide. The plates were kept during 48 hours at 37° C.

[9] = system: E. coli K 12 F′lac1 donor to E coliχ1037 recipient
Experimental: as §3, §4, §5, §6

[10] = system: E. coli K12 J5-3 (R386) donor to E. coliχ1037 recipient; settings: donor E. coli K12 J5-3 (R386)
Experimental: as §3, §4, §5, §6

[11] = system: E. coli K12 J5-3 (R16) donor to E. coliχ1037 recipient; settings: donor E. coli K12 J5-3 (R16)
Experimental: as §3, §4, §5, §6

[12] = system: E. coli K12 F′lac2 donor to E. coliχ1037 recipient
Experimental: as §3, §4, §5, §6

[13] = system: plasmid; assay: In vitro experiments for antiplasmid effect (plasmid eliminating ability); assay type: cell-based; settings: for Eliminating ability (in words) / Plasmid eliminating ability: in vitro; for Plasmid eliminating ability: in concentration of 50 μg/ml
From the text: The elimination of R-plasmids and F′lac plasmids, as well as inhibition of transmission of R-plasmid transfer were studied.
These are the compounds under mark FC-1181, FC-1186 and Sila-439. The compound sila-429 (75%) was compared against three representatively antibiotic resistant strains of bacteria, as follows: the polyresistant Acinetobacter anitratus, the resistant to gentamycine staphylococcus aureus and the Methycilline resistant Staphylococcus aureus strains.
as §2, §1

[14] = system: Escherichia coli (resistant to Chlorocid)
Experimental: (§7) The bacteriostatic effect was inspected on a liquid culture medium using method of serial dilution. We inoculated 0.05 ml of culture of the examined bacteria being in exponential phase (i.e. of optical density 0.4) in dilution by 10^−4 into broth culture medium MTE of 5 ml. The culture of E. coli of optical density 0.4 contained 4.1 to 5.2×10^8, the one of Staphylococcus aureus of similar density contained 2.2 to 8.2×10^7 settlement building units per ml. […] We examined thereafter the smallest concentration of each compound, which still inhibits the proliferation of the identical number of bacteria. The examinations for the antiplasmid effect could be begun after having been obtained the mentioned date, because these effects can be detected only at values lower than MIC.
(§8) The previously established MIC (minimal inhibiting concentration) values are as follows: […]

[15] = system: Acinetobactes anitratus (resistant to Chlorocid)
Experimental: as §7, §8

[16] = system: Staphylococcus aureus (resistant to gentamycine)
Experimental: as §7, §8

[17] = system: mice
Experimental: We used the usual dose of inoculation i.e. 0,2 ml per 10 g weight. […] The exact definition of this value should be done in an institute dealing with toxicology and clinical pharmacology.

[18] = concentration of elimination 62,5 mg/ml
[19] = concentration of elimination 312, mg/ml
[20] = concentration of elimination 25 mg/ml
[21] = concentration of elimination 33 mg/ml
[22] = concentration of elimination 18 mg/ml
[23] = second line for FC-2006/C, concentration of elimination not given
[24] = dose of 500 mg/kg, intraperitoneal, 5 mice

Compound: CC[n+]1c(-c2ccccc2)c2cc(N)ccc2c2ccc(N)cc21 [Ethidium bromide, reference compound]
- Frequency of elimination (%) ([1]; plasmid pIP 855, 1.95 μg/ml): 9.4%
- Frequency of elimination (%) ([2]; plasmid pIP 856, 1.95 μg/ml): 12.3%
- Frequency of elimination (%) Lac [3, 18]: 0%
- Frequency of elimination (%) Lac [3, 19]: 0%
- Frequency of elimination (%) ([4]; plasmid pCRG 1600, 62.5 μg/ml): 2.8%
- Frequency of elimination (%) ([5]; plasmid pBI 109 PGL, 3.9 μg/ml): 88.2%
- Frequency of elimination (%) ApTC [6, 18]: 24%
- Frequency of elimination (%) TC [6, 18]: 30%
- Frequency of elimination (%) ApTC [6, 19]: 0%
- Frequency of elimination (%) TC [6, 19]: 10%

Compound: CCCC[Si](C)(C)COc1ccc(C(=O)OCCC[N+](C)(C)C)cc1.[I-] [FC-2012, 4-(dimethyl-n-butyl-silil-methyloxy)-benzoic acid-3-dimethylamino-propyl-ester-methoiodide]
- Frequency of elimination (%) ([1]; plasmid pIP 855, 7.8 μg/ml): 41.9%
- MIC [7]: 39 mg/mL
- Frequency of elimination (%) ([2]; plasmid pIP 856, 7.8 μg/ml): 34.6%
- Frequency of transfer ([8]; in concentration of 30 μg/ml, without substance 2.5 × 10^−4): 2.3 × 10^−4***
- Frequency of transfer ([9]; donor E. coli K 12 F′lac1, in concentration of 15 μg/ml, without substance 0.8 × 10^−6): 0**
- Frequency of transfer ([10]; in concentration of 30 μg/ml, without substance 0.4): 0.6 × 10^−1***
- Frequency of transfer ([11]; in concentration of 30 μg/ml, without substance 1.2 × 10^−2): 1 × 10^−3***
- Frequency of transfer ([12]; donor E. coli K12 F′lac2, in concentration of 15 μg/ml, without substance 0.2 × 10^−5): 0**
- Frequency of elimination (%) Lac [3, 20]: 0%
- Frequency of elimination (%) Lac [3, 21]: 0%
- Frequency of elimination (%) ([4]; plasmid pCRG 1600, 7.8 μg/ml): 10.1%
- Eliminating ability (in words) [13]: good eliminating ability
- Frequency of elimination (%) ([5]; plasmid pBI 109 PGL, 7.,8 μg/ml): 88.0%
- Frequency of elimination (%) ApTC [6, 20]: 2%
- Frequency of elimination (%) TC [6, 20]: 10%
- Frequency of elimination (%) ApTC [6, 21]: 27%
- Frequency of elimination (%) TC [6, 21]: 58%

Compound: 4(dimethyl-n-butyl-silil-methyloxy)-benzoic acid-(3-pyridyl)-methylester-methoiodide [FC-2006/C]
- Frequency of elimination (%) ([1]; plasmid pIP 855, 9.5 μg/ml): 69.2%
- MIC [7]: 25 mg/mL
- Frequency of elimination (%) ([2]; plasmid pIP 856, 9.5 μg/ml): 75.1%
- Frequency of transfer ([8]; in concentration of 24.7 μg/ml, without substance 0.2 × 10): 0.2 × 10^−1
- Frequency of transfer ([9]; donor E. coli K 12 F′lac1, in concentration of 24.7 μg/ml, without substance 0.6 × 10^−6): 2.2 × 10^−6
- Frequency of transfer ([10]; in concentration of 24.7 μg/ml, without substance 0.5 × 10^−1): 0.9 × 10^−2
- Frequency of transfer ([11]; in concentration of 24.7 μg/ml, without substance 0.3 × 10^−1): 0.3 × 10^−3
- Frequency of transfer ([12]; donor E. coli K12 F′lac2, in concentration of 24.7 μg/ml, without substance 0.6 × 10^−6): 3 × 10^−6
- Frequency of elimination (%) Lac [3, 22]: 0%
- Frequency of elimination (%) Lac [3, 23]: 0%
- Frequency of elimination (%) ([4]; plasmid pCRG 1600, 9.5 μg/ml): 32.6%
- Plasmid eliminating ability [13]: outstanding plasmid eliminating ability
- Eliminating ability (in words) [13]: good eliminating ability
- Eliminating effect ([13]; only to one E. coli plasmid): ~100%
- Frequency of elimination (%) ([5]; plasmid pBI 109 PGL, 9.5 μg/ml): 94.4%
- Frequency of elimination (%) ApTC [6, 22]: 0%
- Frequency of elimination (%) TC [6, 22]: 0%
- Frequency of elimination (%) ApTC [6, 23]: 0%
- Frequency of elimination (%) TC [6, 23]: 0%

Compound: C[N+](C)(C)CCOC(=O)c1ccc(OCCC[Si](C)(C)C)cc1.[I-] [Sila-439, 4-(3-trimethyl-silil-propyloxy)-benzoic acid-2-dimethyl-amino-ethyl-ester-methoiodide]
- MIC (minimal inhibiting concentration) [14]: 0.07 mg/mL
- MIC (minimal inhibiting concentration) [15]: 0.08 mg/mL
- MIC (minimal inhibiting concentration) [16]: 180 μ/ml
- Toxicity (i.p), mice alive per mice inoculated ([17]; 50 mg/kg (0.01 ml/mouse) i.p., 2 hours): 5/5
- Toxicity (i.p), mice alive per mice inoculated ([17]; 50 mg/kg (0.01 ml/mouse) i.p., 6 hours): 5/5
- Toxicity (i.p), mice alive per mice inoculated ([17]; 50 mg/kg (0.01 ml/mouse) i.p., 9 hours): 5/5
- Toxicity (i.p), mice alive per mice inoculated ([17]; 50 mg/kg (0.01 ml/mouse) i.p., 12 hours): 5/5
- Toxicity (i.p), mice alive per mice inoculated ([17]; 50 mg/kg (0.01 ml/mouse) i.p., 24 hours): 5/5
- Toxicity (i.p), mice alive per mice inoculated ([17]; 500 mg/kg (0.1 ml/mouse) i.p., 2 hours): 0/5
- Condition of the mice after inoculation ([17]; dose of 50 mg/kg, intraperitoneal): lived and moved vividly exactly like those in the control group
- Mortality after inoculation [17, 24]: all the five mice died
- Spasms after inoculation [17, 24]: spasms occurred in the 5 inoculated mice in two minutes
- Concentration at which the antiplasmid effect manifests [13]: 40 µg/mL
- Plasmid eliminating ability [13]: outstanding plasmid eliminating ability
- Eliminating ability (in words) [13]: extraordinary good eliminating ability; also recorded: very good plasmid elimination effect
- Antiplasmid effect in in vitro experiments ([13]; three compounds effective from 36 studied): effective
